From US12527785B2, “Renin-angiotensin-aldosterone system (RAAS) inhibitors in the treatment of pancreatic ductal carcinoma” (OCHSNER CLINIC FOUNDATION, priority 2023, dated 2026)

System: PANC-1 tumor orthotopic xenograft
Test: PANC-1 tumor orthotopic xenograft mouse model (BLI tumor burden, tumor weight)
Format: in vivo
Details: for Tumor weight / Tumor weight, mean: 100 mg/kg EMA401, DWK 8.5; for Tumor weight: Table 17A, control 0.9444; for Tumor weight lowered versus control: EMA401 (100 mg/kg); for BLI data, % of control / BLI data, mean: four weeks; for BLI data, mean: control 3.003
Text: Human PDCA cell line PANC-1 was transduced with pre-made lentiviral vectors encoding luciferase (firefly)/red fluorescent protein (RFP) to enable monitoring of the growth of primary tumor and metastasis. […] For in vivo experiments, Nonobese diabetic/severe combined immunodeficiencyNOD-SCID mice (Jackson Labs, Bar Harbor, ME, or inhouse breeding) were first brought under anesthesia with isoflurane (2.5% in 100% oxygen, 1 L/min) in an induction chamber and maintained under adequate anesthesia (isoflurane inhalation) while being laid on a warming pad throughout the surgical procedure. For tumor generation, 5×10^4 luciferase-tagged PANC-1 cells were co-inoculated with 3×10^5 lymph node stromal cell (LNSC) analog HK cells. The mice received a 0.75-1.2 cm long incision (on the left side of the body slightly medial to the splenic silhouette) to exteriorize the spleen and pancreas. While gently retracting the pancreas laterally, a 30 G needle was inserted along the length of the pancreas from the tail to the pancreatic head region. Then, 10 μl of cell suspension was injected as the needle was withdrawn to the mid-body of the pancreas. The needle was removed, and the area was inspected for leakage and bleeding. The pancreas and spleen were internalized with forceps and the abdominal muscle layer was closed with interrupted stitches (3-0 silk suture). The overlying skin was closed with a second set of interrupted stitches. Buprenorphine SR-LAB was injected subcutaneously immediately after the surgery for pain relief.
After the surgery, tumor growth and metastatic tumor burden were monitored and assessed weekly for luciferase activity by bioluminescence imaging (BLI) using Lago Imaging System (Spectral Instruments Imaging, Tucson, AZ). Mice were anesthetized using isoflurane for all imaging procedures. Mice were administered intraperitoneally with luciferin (10 mg/kg) and imaged in 10-20 minutes for maximum luciferase signal plateau. Images were analyzed using Aura Imaging software. Once the BLI levels of xenografted tumor reached 5×10^8 photons (around 7-9 weeks post PANC-1 cell injection), the mice were grouped based on their BLI level and compounds (e.g., drugs) of the present disclosure were given by gavage daily to each group for 4 weeks. […] Upon sacrifice after 4 weeks of treatment, primary tumors and mouse organs were harvested, weighed, imaged, and formalin-fixed for (hematoxylin and eosin) H&E and immunohistochemistry staining. Data was statistically analyzed using t-test, or t-test with Bonferroni correction.

## COc1ccc2c(c1OCc1ccccc1)C[C@@H](C(=O)O)N(C(=O)C(c1ccccc1)c1ccccc1)C2 [EMA401]
All animals
  Tumor weight: 0.7215 g
Excluding one outlier
  Tumor weight: 0.6174 (Excluding
Table 17B (repeated study), control 0.8041
  Tumor weight, mean: 0.5383 g
Table 17C (both studies pooled, including the outlier), control 0.8763
  Tumor weight, mean: 0.6347 g
100 mg/kg EMA401 for 8 weeks, first study, all animals, did not reach statistical significance
  Tumor weight fall versus control: 24%
100 mg/kg EMA401 for 8 weeks, first study, one outlier omitted, p=0.036
  Tumor weight decrease versus control: 35%
EMA401 60 mg/kg, short-term (4 week) low dose study
  Effect on tumor weight: did not reduce tumor weight
4 week study, not statistically significant
  Tumor weight lowered versus control: 26%
After 8 weeks treatment (example 5), significant
  Tumor weight lowered versus control: 33%
EMA (60 mg/kg)
  BLI data, % of control: 59%
  BLI data, mean: 1.782
EMA (100 mg/kg)
  BLI data, % of control: 61%
  BLI data, mean: 1.834
